One data set concerns ARPE-19 cells. As to the kind of experiment: Cell viability assay: protection of RPE cells from tBH oxidative stress. Format: cell-based. The conditions noted are these: for PROTECTION (%) AT 10 uM: protection of RPEs from oxidative stress (0.3 mM tBH), ARPE-19 cells. How it is done: (§1) ARPE-19 cells from ATCC were grown in DEME/F12 medium supplemented with 10% Fetal Bovine Serum (FBS) and split into 96-well plates at a density of 10,000 cells per well. Cells were incubated overnight in 0.1% FBS medium before addition of compound/drug. Stocks of compounds of interest were made at different concentrations and added to ARPE-19 cells in 0.1% FBS medium for one hour.
After one hour of compound/drug pretreatment, cells were incubated with 0.3 mM tert-butyl hydroperoxide (tBH) for 3 hours followed by three times of washing and replacement with fresh drug and medium (0.1% FBS medium) for overnight. […] Error bars, SEM. n=3.

For data set [1], the system named is C57B6 mice with oxygen-induced retinopathy. The data set can be described thus: Oxygen-induced retinopathy (hyperoxia): retinal neovascularization. The format is in vivo. The conditions noted are these: gavage once daily P10 through P16; evaluated on P17; FIG. 10. How it is done: Litters of newborn mice and their dams were placed in a 75% oxygen chamber from P7 to P12. The chamber contained enough food and water for 5 days and was opened only to allow drug administration to the animals. The mice were returned to room air with normal oxygen content on P12. Olanzapine in water or VEH (water) was administered once daily by gavage beginning on P10 and continuing through P16. Retinal neovascularization was evaluated on P17 after 5 days of exposure of the animals to room air. Error bars, SEM.
Oxygen-induced retinopathy (OIR)/Hyperoxia was induced in C57B6 mice using the protocol reported by Smith et al. (Smith L E, Wesolowski E, McLellan A, et al. Oxygen-induced retinopathy in the mouse. Invest Ophthalmol Vis Sci. 1994; 35(1):101-111). […] Retinal neovascularization was evaluated on P17 after 5 days of exposure of the animals to room air.
Retinal neovascularization was evaluated by angiography in mice subjected to OIR as described previously (Smith L E, Wesolowski E, McLellan A, et al. Oxygen-induced retinopathy in the mouse. Invest Ophthalmol Vis Sci. 1994; 35(1):101-111). […] Quantification of retinal neovascularization was performed as described previously (Chen J, Connor K M, Aderman C M, Smith L E. Erythropoietin deficiency decreases vascular stability in mice. J Clin Invest. 2008; 118(2):526-533). […]

The subject of data set [2] is blue light exposed rats. The data set can be described thus: H&E staining and immuno-histochemistry of rat ocular tissue after blue light exposure. Format: in vivo, Sprague-Dawley rats. The settings on record: IP, 2-3 wks after blue light exposure. On the procedure:
(§2) Four to five month old Sprague-Dawley (SD) male rats were used in the following study. Drug treatment was started 2 days before blue light exposure. Animals received olanzapine IP injection once per day for 3 days and the last dosing was 1 hour before blue light exposure.
(§3) For intravitreal injection (IVT), animals received olanzapine (having the structure shown below) 1 hour before blue light exposure. For topical administration, the drug was given 24 hours (BID) and one hour (QI) before blue light exposure. Water was used for parallel control vehicle IP/IVT injection or topical administration. Rats were dark adapted for 24 hours before they were exposed to blue light with lux intensity of ˜6-7 k for 4 hours. Right after the blue light exposure, the rats were dark adapted again for another 3 days before returning to normal room light (12-hour light/12-hour dark). Optical coherence tomography (OCT) was used to evaluate the retinal thickness change caused by blue light at 7-10 days post blue light exposure. Error bars, SEM. (FIG. 3).
Sprague-Dawley male rats 2-3 weeks after blue light exposure were euthanized with CO2 and orbits enucleated. Eyes were fixed in Davidson's fixative overnight at room temperature and transferred to 70% ethanol for 24 hrs. Further tissue processing was done by serial dehydration in 80%, 95% & 100% alcohol and Propar, followed by paraffin embedding. Whole rat eyes were transversely cut in the vertical meridian proceeding from nasal to temporal side, using a Microtome (RM2255; Leica Microsystems). Using optic nerve head as the landmark, a total of 45 serial sections with 5 microns/section were collected on 15 glass slides. Slide #s 1, 5, 10 & 15 were deparaffinized and sequentially stained using hematoxylin (nucleus) and eosin (cytoplasm) as per standard protocol to compare photoreceptor/RPE lesion between experimental groups. The rest of the slides were used to determine expressions of Rhodopsin, RPE65 and GFAP using the specific antibodies by standard immune-histochemistry techniques.

Data set [3] relates to IL-8 secretion from RPE cells (ARPE-19). As to the kind of experiment: IL-8 assay: Poly I:C induced IL-8 secretion from RPE cells. Format: cell-based. The conditions noted are these: 1 ug/ml poly I:C, 24 hours; FIG. 1B. How it is done:
as §1
After one hour of drug pretreatment, cells were incubated with 1 ug/ml polyl:C for 24 hours. The cell culture supernatant was used to measure IL-8 production with IL-8 ELISA Kit (R&D Systems, D8000C). Error bars, SEM. n=3.

Data set [4] concerns laser induced choroidal neovascularization in rats. As to the kind of experiment: Choroidal neovascularization (CNV) assay, laser induced. The format is in vivo, Brown Norway rats. The settings on record: i.p. 1 mg/kg once a day for 3 days plus intravitreal day 1, 4 & 6; 11 days after laser; FIG. 11. On the procedure:
Brown Norway rats (Charles Rivers), weighing 250-300 grams each were used in the study. Drug treatment was started 2 days prior to Laser treatment. Olanzapine was given i.p. (1 mg/kg) once a day for 3 days (day −2, −1 & 0). The last dose on day 0 was delivered about 1 hr before laser treatment. Phosphate buffered saline (PBS) was used for parallel control vehicle IP injection. On day zero of the laser procedure, rat eyes (pupil) were dilated with Tropicamide HCl HCl (1%) and Ak-dilate (10%). Rats were then anesthetized with intramuscular injection of 40 mg/ml Ketamine HCL and 12 mg/ml Xylazine HCl. The fundo's was visualized using a microscope slide coverslip with Refresh Liquigel eye drops as an optical coupling agent. For each animal, 6 laser spots in each eye (360 mW power, 0.07 sec. duration, 50 μm spot size) were made with argon laser (Coherent Inc.; Santa Clara, Ca.) concentrically at approximately equal distances around the optic disc, between every 2 retinal vessels. A single 5-ul volume of the drug (olanzapine) or PBS was injected into the vitreous cavity at day 1, 4 & 6 post-laser photocoagulation procedure. At 11 days after laser treatment, animals were sacrificed by CO2 exposure and CNV formation was assayed as described previously. […] The area of fluorescence was quantified using Metamorph image analysis software (RPI, Natick, Mass.).

The subject of data set [5] is blue light exposed rats. As to the kind of experiment: Blue light study: retinal thickness by optical coherence tomography. The format is in vivo, Sprague-Dawley (SD) rats. The settings on record: IP once per day for 3 days; OCT 7-10 days post blue light; FIG. 3. How it is done: Drug treatment was started 2 days before blue light exposure. Animals received olanzapine IP injection once per day for 3 days and the last dosing was 1 hour before blue light exposure. Rats were dark adapted for 24 hours before they were exposed to blue light with lux intensity of ˜6-7 k for 4 hours. Right after the blue light exposure, the rats were dark adapted again for another 3 days before returning to normal room light (12-hour light/12-hour dark). Optical coherence tomography (OCT) was used to evaluate the retinal thickness change caused by blue light at 7-10 days post blue light exposure. Error bars, SEM. OS=Left Eye, OD=Right Eye.
as §2
For intravitreal injection (IVT), animals received olanzapine (having the structure shown below) 1 hour before blue light exposure. For topical administration, the drug was given 24 hours (BID) and one hour (QI) before blue light exposure. Water was used for parallel control vehicle IP/IVT injection or topical administration. Rats were dark adapted for 24 hours before they were exposed to blue light with lux intensity of ˜6-7 k for 4 hours. […]

Data set [6] has as its system blue light exposed rats. As to the kind of experiment: Electroretinography (ERG) assay after blue light exposure. Format: in vivo, Sprague-Dawley (SD) rats. On the procedure:
as §2, §3
Bilateral Flash Electroretinograms were recorded in SD rats using the Espion E^2 electroretinography system. On the day of ERG, Animals were dark adapted for at least 30 minutes. Their eyes were dilated with Tropicamide HCl (1%) and Ak-dilate (10%). Prior to ERG recording, the animal was anesthetized with intramuscular injection of 40 mg/ml Ketamine HCl and 12 mg/ml Xylazine HCl, and placed onto heated platform. The ground needle was placed in the skin under the arm and the reference needle was place in the skin above the head. Retinae were stimulated using 1 cd.s/m2 flash for an average of 10 traces at 0.1 Hz. Recording filter was set at 300 Hz. ERG responses were analyzed using Espion E^2, and Microsoft excel program. The b-wave amplitude was measured from the trough of the a-wave to the peak of the b-wave, and the a-wave was measured as the difference in amplitude between recording at onset and the trough of the negative deflection. Error bars, SEM. (FIGS. 4, 8, and 9).

The text below walks through data of US9561234B2, “Methods for treating diseases of the retina” (Allergan, Inc., priority 2010, dated 2017).

Molecules are shown by their SMILES. “Also recorded” adds a separate entry of the source.

As for `Cc1cc2c(s1)Nc1ccccc1N=C2N1CC[N+](C)([O-])CC1` [Metabolite A, Olanzapine-N-oxide], the “PROTECTION (%) AT 10 uM” value with ARPE-19 cells is on record as 103%.
The same measure, in the same setting: the same measure for `Cc1cc2c(s1)Nc1ccccc1N=C2N1CCNCC1` [Metabolite B, N-desmethyl olanzapine]: 129%.
Take `Cc1cc2c(s1)Nc1ccccc1N=C2N1CCN(C)CC1` [Olanzapine, 2-methyl-4-(4-methylpiperazin-1-yl)-10H-benzo[b]thieno[2,3-e][1,4]diazepine]: the “attenuation of hyperoxia induced retinal neovascularization” value in data set [1] was “significantly attenuates”. In the data set on blue light exposed rats [2] (FIG. 5), the “protection of outer nuclear layer (H&E staining)” value is “significantly protects”. For the same molecule, the “protection from retinal rhodopsin loss (immuno-histochemistry)” value in the data set with blue light exposed rats [2] (FIG. 6) is “significantly protects”. Besides, in the data set with blue light exposed rats [2] (FIG. 7), the “inhibition of GFAP upregulation (immuno-histochemistry)” value was “partially inhibits” and the “protection from RPE65 loss (immuno-histochemistry)” value is “significantly protects”. The “inhibition of Poly I:C induced IL-8 secretion from RPE cells” value in data set [3] was “inhibits”. In addition, the “inhibition of laser induced choroidal neovascularization” value in data set [4] is “significantly inhibits”. Also, in the data set on blue light exposed rats [5], the “protection of superior retinal thickness (OCT)” value was “significantly protects”. In the data set with ARPE-19 cells, the “PROTECTION (%) AT 10 uM” value came to 116%. The “protection of RPE cells from oxidative stress (tBH) induced apoptosis / cell death” value in the data set on ARPE-19 cells (tBH, RPE cells, FIGS. 1A, 2) is recorded as “significantly protects in a dose responsive fashion; also recorded: protect”. In addition, in the data set with blue light exposed rats [6] (IP once per day for 3 days, ERG 7-10 days post blue light, FIG. 4), the “protection of retinal a- and b-waves (ERG)” value is reported as “significantly protects”. For the same molecule, the “prevention of ERG alteration” value with blue light exposed rats [6] (intravitreal, 0.04, 0.2, or 1 ug/eye, 1 hour before blue light, ERG 7-10 days post, FIG. 8) is reported as “significantly prevents”. In the data set with blue light exposed rats [6] (topical ocular dosing 24 hours (BID) and one hour before blue light, ERG 7-10 days post, FIG. 9), the “protection of retinal a- and b-wave signals (ERG)” value is given as “significantly protects”.
With `Clc1ccc2c(c1)N=C(N1CCNCC1)c1ccccc1N2` [n-desmethly clozapine, N-desmethyl clozapine], the “PROTECTION (%) AT 10 uM” value in the data set on ARPE-19 cells is listed as 77%.
